{"source": "ChEMBL document CHEMBL1201862", "about": "“PubChem BioAssay data set” (2004)", "assay_in_all_cases": "DTP human tumour cell line panel, 48 h", "key": {"A549": {"test_system": "A549"}, "CCRF-CEM": {"test_system": "CCRF-CEM"}, "COLO 205": {"test_system": "COLO 205"}, "HL-60": {"test_system": "HL-60"}, "HT-29": {"test_system": "HT-29"}, "IGROV-1": {"test_system": "IGROV-1"}, "K562": {"test_system": "K562"}, "LOX IMVI": {"test_system": "LOX IMVI"}, "MOLT-4": {"test_system": "MOLT-4"}, "NCI-H23": {"test_system": "NCI-H23"}, "NCI-H460": {"test_system": "NCI-H460"}, "NCI-H522": {"test_system": "NCI-H522"}, "OVCAR-3": {"test_system": "OVCAR-3"}, "SF-539": {"test_system": "SF-539"}, "SK-MEL-28": {"test_system": "SK-MEL-28"}, "SK-MEL-5": {"test_system": "SK-MEL-5"}, "SNB-19": {"test_system": "SNB-19"}, "SNB-75": {"test_system": "SNB-75"}, "SW-620": {"test_system": "SW-620"}, "U-251": {"test_system": "U-251"}}, "note": "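Assay format: 96-well plates, 48-hour exposure. At the GI50, growth is halved.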 Calls of active or inactive are those of the source. Rule as the data show it: active = GI50 up to about 1.1 µM and inactive = higher.", "data": [{"smiles": "C[Si](C)(C)/C=C/CN1C(=O)CCC1=O", "values": [{"measurement": "GI50", "setting": "A549", "result": "> 100 µM (inactive)"}, {"measurement": "GI50", "setting": "CCRF-CEM", "result": "> 100 µM (inactive)"}, {"measurement": "GI50", "setting": "COLO 205", "result": "> 100 µM (inactive)"}, {"measurement": "GI50", "setting": "HL-60", "result": "> 100 µM (inactive)"}, {"measurement": "GI50", "setting": "HT-29", "result": "> 100 µM (inactive)"}, {"measurement": "GI50", "setting": "IGROV-1", "result": "> 100 µM (inactive)"}, {"measurement": "GI50", "setting": "K562", "result": "> 100 µM (inactive)"}, {"measurement": "GI50", "setting": "LOX IMVI", "result": "> 100 µM (inactive)"}, {"measurement": "GI50", "setting": "MOLT-4", "result": "> 10 µM (inactive)"}, {"measurement": "GI50", "setting": "NCI-H23", "result": "> 100 µM (inactive)"}, {"measurement": "GI50", "setting": "NCI-H460", "result": "> 100 µM (inactive)"}, {"measurement": "GI50", "setting": "NCI-H522", "result": "> 100 µM (inactive)"}, {"measurement": "GI50", "setting": "OVCAR-3", "result": "> 100 µM (inactive)"}, {"measurement": "GI50", "setting": "SF-539", "result": "> 100 µM (inactive)"}, {"measurement": "GI50", "setting": "SK-MEL-28", "result": "> 100 µM (inactive)"}, {"measurement": "GI50", "setting": "SK-MEL-5", "result": "> 100 µM (inactive)"}, {"measurement": "GI50", "setting": "SNB-19", "result": "> 100 µM (inactive)"}, {"measurement": "GI50", "setting": "SNB-75", "result": "83.2 µM (inactive)"}, {"measurement": "GI50", "setting": "SW-620", "result": "> 100 µM (inactive)"}, {"measurement": "GI50", "setting": "U-251", "result": "> 100 µM (inactive)"}]}, {"smiles": "Cc1nc2ccccc2n1C(=O)c1c(F)c(F)c(F)c(F)c1F", "values": [{"measurement": "GI50", "setting": "A549", "result": "30.4 µM (inactive)"}, {"measurement": "GI50", "setting": "CCRF-CEM", "result": "5.12 µM (inactive)"}, {"measurement": "GI50", "setting": "COLO 205", "result": "14.8 µM (inactive)"}, {"measurement": "GI50", "setting": "HL-60", "result": "4.49 µM (inactive)"}, {"measurement": "GI50", "setting": "HT-29", "result": "4.98 µM (inactive)"}, {"measurement": "GI50", "setting": "IGROV-1", "result": "19.1 µM (inactive)"}, {"measurement": "GI50", "setting": "K562", "result": "5.48 µM (inactive)"}, {"measurement": "GI50", "setting": "LOX IMVI", "result": "8.93 µM (inactive)"}, {"measurement": "GI50", "setting": "MOLT-4", "result": "4.07 µM (inactive)"}, {"measurement": "GI50", "setting": "NCI-H23", "result": "17 µM (inactive)"}, {"measurement": "GI50", "setting": "NCI-H460", "result": "5.09 µM (inactive)"}, {"measurement": "GI50", "setting": "NCI-H522", "result": "3.01 µM (inactive)"}, {"measurement": "GI50", "setting": "OVCAR-3", "result": "24.3 µM (inactive)"}, {"measurement": "GI50", "setting": "SF-539", "result": "11.6 µM (inactive)"}, {"measurement": "GI50", "setting": "SK-MEL-28", "result": "29.4 µM (inactive)"}, {"measurement": "GI50", "setting": "SK-MEL-5", "result": "12.1 µM (inactive)"}, {"measurement": "GI50", "setting": "SNB-19", "result": "29.5 µM (inactive)"}, {"measurement": "GI50", "setting": "SNB-75", "result": "25.4 µM (inactive)"}, {"measurement": "GI50", "setting": "SW-620", "result": "5.09 µM (inactive)"}, {"measurement": "GI50", "setting": "U-251", "result": "19 µM (inactive)"}]}, {"smiles": "Cc1cc(C)n(C(=C(C(Cl)=C(Cl)Cl)[N+](=O)[O-])n2nc(C)cc2C)n1", "values": [{"measurement": "GI50", "setting": "A549", "result": "3.5 µM (inactive)"}, {"measurement": "GI50", "setting": "CCRF-CEM", "result": "2.16 µM (inactive)"}, {"measurement": "GI50", "setting": "COLO 205", "result": "2.08 µM (inactive)"}, {"measurement": "GI50", "setting": "HL-60", "result": "1.91 µM (inactive)"}, {"measurement": "GI50", "setting": "HT-29", "result": "3.5 µM (inactive)"}, {"measurement": "GI50", "setting": "IGROV-1", "result": "4.03 µM (inactive)"}, {"measurement": "GI50", "setting": "K562", "result": "2.02 µM (inactive)"}, {"measurement": "GI50", "setting": "LOX IMVI", "result": "2.1 µM (inactive)"}, {"measurement": "GI50", "setting": "MOLT-4", "result": "2.37 µM (inactive)"}, {"measurement": "GI50", "setting": "NCI-H23", "result": "3.23 µM (inactive)"}, {"measurement": "GI50", "setting": "NCI-H460", "result": "3.52 µM (inactive)"}, {"measurement": "GI50", "setting": "NCI-H522", "result": "2.73 µM (inactive)"}, {"measurement": "GI50", "setting": "OVCAR-3", "result": "3.08 µM (inactive)"}, {"measurement": "GI50", "setting": "SF-539", "result": "4.59 µM (inactive)"}, {"measurement": "GI50", "setting": "SK-MEL-28", "result": "6.17 µM (inactive)"}, {"measurement": "GI50", "setting": "SK-MEL-5", "result": "2.13 µM (inactive)"}, {"measurement": "GI50", "setting": "SNB-19", "result": "4.81 µM (inactive)"}, {"measurement": "GI50", "setting": "SNB-75", "result": "6.25 µM (inactive)"}, {"measurement": "GI50", "setting": "SW-620", "result": "3.7 µM (inactive)"}, {"measurement": "GI50", "setting": "U-251", "result": "3.44 µM (inactive)"}]}, {"smiles": "O=[N+]([O-])c1ccc2[nH]c3c(-c4ccccc4)nccc3c2c1", "values": [{"measurement": "GI50", "setting": "A549", "result": "15.6 µM (inactive)"}, {"measurement": "GI50", "setting": "CCRF-CEM", "result": "4.09 µM (inactive)"}, {"measurement": "GI50", "setting": "COLO 205", "result": "34.2 µM (inactive)"}, {"measurement": "GI50", "setting": "HL-60", "result": "6 µM (inactive)"}, {"measurement": "GI50", "setting": "HT-29", "result": "10.7 µM (inactive)"}, {"measurement": "GI50", "setting": "IGROV-1", "result": "7.03 µM (inactive)"}, {"measurement": "GI50", "setting": "K562", "result": "1.71 µM (inactive)"}, {"measurement": "GI50", "setting": "LOX IMVI", "result": "16.9 µM (inactive)"}, {"measurement": "GI50", "setting": "MOLT-4", "result": "2.31 µM (inactive)"}, {"measurement": "GI50", "setting": "NCI-H23", "result": "32.1 µM (inactive)"}, {"measurement": "GI50", "setting": "NCI-H460", "result": "14.4 µM (inactive)"}, {"measurement": "GI50", "setting": "NCI-H522", "result": "14.3 µM (inactive)"}, {"measurement": "GI50", "setting": "OVCAR-3", "result": "14.3 µM (inactive)"}, {"measurement": "GI50", "setting": "SF-539", "result": "63 µM (inactive)"}, {"measurement": "GI50", "setting": "SK-MEL-28", "result": "29.2 µM (inactive)"}, {"measurement": "GI50", "setting": "SK-MEL-5", "result": "15.4 µM (inactive)"}, {"measurement": "GI50", "setting": "SNB-19", "result": "15.3 µM (inactive)"}, {"measurement": "GI50", "setting": "SNB-75", "result": "11.7 µM (inactive)"}, {"measurement": "GI50", "setting": "SW-620", "result": "36 µM (inactive)"}, {"measurement": "GI50", "setting": "U-251", "result": "19.5 µM (inactive)"}]}, {"smiles": "C[C@]12CC[C@H]3[C@@H](CCC4=CC(=O)CC[C@@]43C)[C@@H]1CC[C@@H]2C(=O)COS(=O)(=O)c1ccc(Br)cc1", "values": [{"measurement": "GI50", "setting": "A549", "result": "18.7 µM (inactive)"}, {"measurement": "GI50", "setting": "CCRF-CEM", "result": "0.207 µM (active)"}, {"measurement": "GI50", "setting": "COLO 205", "result": "20.5 µM (inactive)"}, {"measurement": "GI50", "setting": "HL-60", "result": "4.69 µM (inactive)"}, {"measurement": "GI50", "setting": "HT-29", "result": "11.8 µM (inactive)"}, {"measurement": "GI50", "setting": "IGROV-1", "result": "1.6 µM (inactive)"}, {"measurement": "GI50", "setting": "K562", "result": "4.09 µM (inactive)"}, {"measurement": "GI50", "setting": "LOX IMVI", "result": "1.61 µM (inactive)"}, {"measurement": "GI50", "setting": "MOLT-4", "result": "1.41 µM (inactive)"}, {"measurement": "GI50", "setting": "NCI-H23", "result": "2.37 µM (inactive)"}, {"measurement": "GI50", "setting": "NCI-H460", "result": "10.1 µM (inactive)"}, {"measurement": "GI50", "setting": "NCI-H522", "result": "1.59 µM (inactive)"}, {"measurement": "GI50", "setting": "OVCAR-3", "result": "6.43 µM (inactive)"}, {"measurement": "GI50", "setting": "SF-539", "result": "9.25 µM (inactive)"}, {"measurement": "GI50", "setting": "SK-MEL-28", "result": "21 µM (inactive)"}, {"measurement": "GI50", "setting": "SK-MEL-5", "result": "8.77 µM (inactive)"}, {"measurement": "GI50", "setting": "SNB-19", "result": "19.5 µM (inactive)"}, {"measurement": "GI50", "setting": "SNB-75", "result": "17.5 µM (inactive)"}, {"measurement": "GI50", "setting": "SW-620", "result": "9.4 µM (inactive)"}, {"measurement": "GI50", "setting": "U-251", "result": "8.93 µM (inactive)"}]}]}
